Results: patent US6683186B2, “2,3-Disubstituted pyridine derivative, process for the preparation thereof, pharmaceutical composition containing the same, and intermediate therefor” (Dainippon Pharmaceutical Company, Limited, priority 1998, dated 2004)
Structures can show the parent of a compound that is named as a salt. Where two headings read alike, the source gives them in different places.

What was measured:
[1] = system: PDE IV isolated and purified from guinea pig eosinophils; experiment: PDE IV inhibitory activity test; format: biochemical; conditions: hydrolysis of cAMP by enzyme preparation from guinea pig eosinophils; read-out: 50% Inhibitory Concentration
Procedure: The PDE IV inhibitory activity test was carried out according to a method using cosinophils prepared from the abdomen of guinea pig (Souness, J. E. et al., Biochem. Pharmacol. vol. 42, p. 937 (1991)). That is, a homogenizing buffer (10 ml, components: 20 mM Tris-HCl buffer (pH 7.5); 2 mM magnesium chloride; 1 mM dithiothreitol, 5 mM ethylenediamine tetraacetate disodium; 250 mM sucrose; 20 μM p-tosyl-l-lysine-chloromethylketone; 10 μg/ml Leupeptine) was added to 5×10^7 cells, and the mixture was centrifuged. To the residue was added a solubilizing buffer (10 ml, sodium deoxycholate (final concentration: 0.5%) and sodium chloride (final concentration: 100 mM) were added to the above homogenizing buffer), and the mixture was centrifuged again. The supernatant was subjected to ultrafiltration using Molcut-II (manufactured by Japan Millipore Limited), and the fraction on the membrane was collected by adding a homogenizing buffer (10 ml) to give an enzyme preparation. Inhibitory activity against the enzyme was determined by comparing the hydrolysis rates of a substrate, cAMP (manufactured by Nacalai Tesque Inc.), by the above enzyme fraction between in the test compound-treated group and the vehicle group.

[2] = system: bronchoconstriction of guinea pig induced by the antigen; experiment: Inhibitory effect on antigen-induced bronchoconstriction (Konzett-Roessler method); format: in vivo; conditions: sensitized guinea pigs; for inhibition in vivo at 10 mg/kg / inhibition in vivo at 3 mg/kg / inhibition in vivo at 30 mg/kg: Cavia porcellus, po, read-out: Inhibitory Rate; for inhibition in vivo at 3 mg/kg: 3 mg/kg orally; for inhibition in vivo at 30 mg/kg: 30 mg/kg orally
Procedure: Hartley male guinea pigs were actively sensitized by intraperitoneally administering an ovalbumin (manufacture by Sigma). Four weeks thereafter, the animals were anesthetized with Nembutal (50 mg/kg, i.p., manufactured by Dainabot Co., Ltd.), and a cannual was inserted at the airway, and the bronchoconstriction response of the animals under artificial respiration was observed. The response of the airway was measured by Konzett-Roessler method (Naunyn-Schmiedebergs, Aech. Exp. Pathol. Pharmacol., vol. 195, p. 71 (1940)). A test compound (the compounds of Examples of the present invention as listed in Table 3) was orally administered to the animals one hour prior to the administration of the antigen (i.e., ovalbumin, 0.05%/physiological saline solution, i.v.). Only the compound of Example 31 was orally administered 2 hours prior to the administration of the antigene. The inhibitory rate (%) caused by the test compound was calculated by comparing the bronchoconstriction response of the test compound-treated group with that of the control group to which only a solvent was administered.

acute toxicity test = format: in vivo; conditions: dose of 2000 mg/kg
Description: Besides, the present compounds (I) of the present invention are low toxic.

[3] = 1 h, 10 mg/kg orally, one hour prior to antigen (ovalbumin i.v.)
[4] = 2 hours prior to antigen (ovalbumin i.v.)
[5] = 1 h, one hour prior to antigen (ovalbumin i.v.)

Row | IC50 [1] [nM] | SMILES | inhibition in vivo at 10 mg/kg [2, 3] [%] | other results
1 | 41.2 | Nc1cncc(O)c1CCCOc1cccnc1Oc1cccc(Cl)c1 [Example 69, 2-(3-chlorophenoxy)-3-[3-(3-amino-5-hydroxypyridin-4-yl)propoxy]pyridine.1.0 fumarate] |  | 
2 | 200 | Oc1cncc(Cl)c1CCCOc1cccnc1Oc1cccc(Cl)c1 [Example 73, 2-(3-chlorophenoxy)-3-[3-(3-chloro-5-hydroxypyridin-4-yl)propoxy]pyridine] |  | 
3 |  | Oc1cnccc1CCCOc1cccnc1Nc1cccc(Br)c1 [Example 46, 2-(3-bromoanilino)-3-[3-(3-hydroxypyridin-4-yl)propoxy]-pyridine] | 45.7 | 
4 | 18.3 | Brc1cccc(Oc2ncccc2OCCCc2cccnc2)c1 [Example 40] | 45.3 | melting point: 46 to 48 °C
5 | 35.6 | Brc1cccc(Sc2ncccc2OCCCc2cccnc2)c1 [Example 3, 2-(3-bromophenylthio)-3-[3-(pyridin-3-yl)propoxy]-pyridine] | 59.9 | 
6 |  | N#Cc1cccc(Oc2ncccc2OCCCc2ccncc2O)c1 [Example 28, 2-(3-cyanophenoxy)-3-[3-(3-hydroxypyridin-4-yl)-propoxy]pyridine] | 54 | 
7 | 26.8 | c1ccc(Oc2ncccc2OCCCc2ccncc2)cc1 [Example 37, 2-phenoxy-3-[3-(pyridin-4-yl)propoxy]pyridine] | 49.6 | melting point: 97 to 98 °C
8 | 25.8 | Brc1cccc(Oc2ncccc2OCCCc2ccncc2)c1 [Example 35, 2-(3-bromophenoxy)-3-[3-(pyridin-4-yl)propoxy]pyridine] | 49.3 | 
9 | 20.5 | Fc1cccc(Oc2ncccc2OCCCc2ccncc2)c1 [Example 39, 2-(3-fluorophenoxy)-3-[3-(pyridin-4-yl)propoxy]pyridine] | 66.3 | melting point: 117 to 118 °C
10 |  | Oc1cnccc1CCCOc1cccnc1Sc1cccc(Br)c1 [Example 26, 2-(3-bromophenylthio)-3-[3-(3-hydroxypyridin-4-yl)-propoxy]pyridine] | 48.3 | 
11 | 9.7 | c1ccc(Sc2ncccc2OCCCc2ccncc2)cc1 [Example 15] |  | melting point: 41 to 43 °C
12 | 150 | CS(=O)(=O)Nc1cnccc1CCCOc1cccnc1Oc1cccc(Cl)c1 [Example 70, 2-(3-chlorophenoxy)-3-[3-(3-methylsulfonylaminopyridin-4-yl)propoxy]pyridine] |  | 
13 | 85.6 | Oc1cncc(CCCOc2cccnc2Oc2cccc(Cl)c2)c1 [Example 65, 2-(3-chlorophenoxy)-3-[3-(5-hydroxypyridin-3-yl)-propoxy]pyridine] |  | 
14 | 11 | Oc1cnccc1CCCOc1cccnc1Oc1ccccc1 [Example 30, 2-phenoxy-3-[3-(3-hydroxypyridin-4-yl)propoxy]pyridine] | 46.5 | 
15 |  | Oc1cccc(Sc2ncccc2OCCCc2ccncc2)c1 [Example 13, 2-(3-hydroxyphenylthio)-3-[3-(pyridin-4-yl)propoxy]pyridine] |  | melting point: 158 to 159 °C
16 |  | CCOC(=O)c1cccc(Oc2ncccc2OCCCc2ccncc2O)c1.CCOC(=O)c1cccc(Oc2ncccc2OCCCc2ccncc2O)c1.O=C(O)/C=C/C(=O)O [Example 29, 2-(3-ethoxycarbonylphenoxy)-3-[3-(3-hydroxypyridin-4-yl)propoxy]pyridine.0.5 fumarate] |  | Inhibitory Rate ([2]; 10 mg/kg orally, one hour prior to antigen (ovalbumin i.v.)): 42%
17 | 14.2 | Oc1cnccc1CCCOc1cccnc1Oc1cccc(Br)c1 [Example 32, 2-(3-bromophenoxy)-3-[3-(3-hydroxypyridin-4-yl)-propoxy]pyridine] | 70 | inhibition in vivo at 3 mg/kg [2, 5]: 34%; inhibition in vivo at 30 mg/kg [2, 5]: 72%
18 | 0.18 | COc1ccc(C(=O)Nc2c(Cl)cncc2Cl)cc1OC1CCCC1 [RP-73401, reference compound] |  | 
19 | 23.4 | COC(=O)c1cccc(Oc2ncccc2OCCCc2ccncc2)c1 [Example 53, 2-(3-methoxycarbonylphenoxy)-3-[3-(pyridin-4-yl)-propoxy]pyridine] |  | 
20 | 34.6 | Oc1cnccc1CCCOc1cccnc1Oc1cccc(F)c1 [Example 44, 2-(3-fluorophenoxy)-3-[3-(3-hydroxypyridin-4-yl)-propoxy]pyridine] | 55 | 
21 | 15.3 | COc1cccc(Sc2ncccc2OCCCc2ccncc2)c1 [Example 14] |  | melting point: 84 to 85 °C
22 | 33.7 | Brc1cccc(Sc2ncccc2OCCCc2ccncc2)c1 [Example 7, 2-(3-bromophenylthio)-3-[3-(pyridin-4-yl)propoxy]pyridine] | 77.2 | melting point: 89 to 90 °C
23 | 38.6 | N#Cc1cccc(Oc2ncccc2OCCCc2ccncc2)c1 [Example 41, 2-(3-Cyanophenoxy)-3-[3-(pyridin-4-yl)propoxy]pyridine] |  | melting point: 112 to 113 °C

Row | SMILES | IC50 [1] [nM] | inhibition in vivo at 10 mg/kg [2, 3] [%] | other results
24 | COc1ccc(C2CNC(=O)C2)cc1OC1CCCC1 (stereo not shown) [Rolipram, reference compound] | 28.4 |  | 
25 | COc1ccc([C@]2(C#N)CC[C@@H](C(=O)O)CC2)cc1OC1CCCC1 [SB-207499, reference compound] | 11 |  | 
26 | CC(=O)Oc1cnccc1CCCOc1cccnc1Cc1cccc(Br)c1 [Example 57, 2-(3-bromobenzyl)-3-[3-(3-acetoxypyridin-4-yl)propoxy]-pyridine.1.5 fumarate] | 22.9 |  | 
27 | Oc1cnccc1CCCOc1cccnc1Oc1cccc(Cl)c1 [Example 31, 2-(3-chlorophenoxy)-3-[3-(3-hydroxypyridin-4-yl)-propoxy]pyridine] | 15.7 |  | inhibition in vivo at 3 mg/kg [2, 4]: 39%; inhibition in vivo at 10 mg/kg ([2]; 10 mg/kg orally, 2 hours prior to antigen (ovalbumin i.v.)): 66%; inhibition in vivo at 30 mg/kg [2, 4]: 69%; toxicity in acute toxicity test (acute toxicity test): never showed any toxicity
28 | CC(=O)Oc1cnccc1CCCOc1cccnc1Oc1cccc(Cl)c1 [Example 54, 2-(3-chlorophenoxy)-3-[3-(3-acetoxypyridin-4-yl)propoxy]-pyridine.monofumarate] | 63.3 | 33 | 
29 | CC(=O)Oc1cnccc1CCCOc1cccnc1Oc1ccccc1 [Example 56, 2-phenoxy-3-[3-(3-acetoxypyridin-4-yl)propoxy]pyridine] | 5.6 |  | 
